# Literature values as cited in patent publication US20110086369A1, “FLUORESCENT COMPOUNDS FOR THE DIAGNOSIS OF INFECTIONS, PRODUCTION METHOD, AND APPLICATIONS THEREOF” (priority 2008, published 2011).
# Test system: Leishmania
# Settings: in Leishmania
compound,measurement,value
"CCCCCCCCCCCCCCCCOP(=O)([O-])OCC[N+](C)(C)C [MT, hexadecylphosphocholine]",intracellular concentration,values in the millimolar rank
